What was measured:
male Wistar rats = experiment: Pair-test of sexual behavior, seasonal suppression of copulatory activity; format: in vivo, rat
Procedure: Seasonal suppression of reproductive activity was simulated by carrying out the experiment in the winter period (end of December). As a background group, intact animals (3 months of age) were tested in June.
The experiments were carried out on 27 male Wistar rats of reproductive age (3 months). Treamid at a dose of 5 mg/kg and reference drug Sildenafil (at a dose of 3 mg/kg) were administered intragastrically […], once daily for 15 days. The sexual activity was estimated by the pair-test of sexual behavior. The test was carried out twice: before administration and one hour after the last administration of Treamid. The rats of the control groups receiving the solvent were tested at the same time as the animals of the experimental groups.
The experiment also comprised the use of female rats in the estrus stage caused by a preliminary 4-fold injection of the Synestrel. The effectiveness of Treamid was estimated by the following indices: latency until the first mating attempt (LFM), the number of mating attempts (MN), and the number of ejaculations (EN). The obtained data were compared with those of the same animals before the administration of the tested compound and with the data of the control group (the second test).

male C57BL/6 mice = experiment: Fertility of male mice on a metabolic syndrome model; format: in vivo, mouse
Procedure: Metabolic disorders were simulated as follows: on Day 2 after birth, male C57Bl/6 mice were injected with streptozotocin at a dose of 200 mg/kg, once, subcutaneously in the withers area, and the volume of the injected solution was 30 μl. From week 4 after birth, the animals were transferred to a high-fat diet. For this purpose, the used feed was enriched with heavy saturated fats (30% fat) (Siff EF R/M with 30% Fat Cat No. E15116-34, Germany). The animals were held on the high-fat diet for 42 days (from Day 28 to Day 70 of the study). Treamid was administered at a dose of 10 mg/kg intragastrically once daily, every day from Day 49 to Day 80 of the experiment. The control animals received the equivalent volume of a solvent, instead of the test compound.
The fertility of the males was estimated as follows: intact females were placed to the males of the experimental groups in a ratio of 1:2 for a period of from Day 70 to Day 80 of the study. During this period, the males of the experimental group continued to be administered intragastrically Treamid once daily at a dose of 10 mg/kg.
At the end of the mating period, on Day 80 of the study, the males were euthanized in a CO2 chamber. The blood of the animals was taken and analyzed for serum levels of free testosterone by enzyme immunoassay. Euthanasia was performed in the morning hours from 9:30 to 11:00.
The females were sacrificed in the CO2 chamber on Day 18 of pregnancy. The fetuses in the uterus were examined. The fertility index (FI) was calculated to assess fertility: FI=number of fertilized females/number of females placed with males×100%.

male CBA/CaLac mice = experiment: Chronic toxic hepatitis model (CCl4), liver histology; format: in vivo, mouse; conditions: Day 28; Treamid 10 mg/kg intragastrically Day 14-27
Procedure: Chronic toxic hepatitis was induced in the male CBA/CaLac mice by intragastric administration of a 20% carbon tetrachloride (CCl4) solution in olive oil in a volume of 0.2 ml/mouse on Days 0, 3, 7, 10, 14, and 17 of the study. Treamid was administered at a dose of 10 mg/kg intragastrically once daily, every day from Day 14 to Day 27 of the study. On day 28, the animals were euthanized in a CO2 chamber and a liver biopsy sample was taken for histological analysis.
For histological examination, the liver was fixed in a 10% neutral formalin solution and then poured into paraffin by the standard method. Deparaffined sections of a thickness of 5 μm were stained: 1) with hematoxylin and eosin according to the standard procedure for routine histological examination; and 2) with picrofuxin for the calculation of the area of connective tissue, using a graphic data processing software.

[1] = first test, before administration, winter period
[2] = second test, one hour after last administration, Treamid 5.0 mg/kg, Sildenafil 3 mg/kg intragastrically, 15 days

With `O=C(CCCC(=O)NCCc1ncc[nH]1)NCCc1ncc[nH]1` [Treamid] the “decrease of latency until the first mount after administration compared to before” value (male Wistar rats; Treamid 5 mg/kg) was 1.8 times, the “increase of total number of mating attempts” value (male Wistar rats; Treamid 5 mg/kg, statistically insignificant) was 1.8 times and the “LFM” value (male Wistar rats; [1]) was 462.00 ± 117.81 s. For the same compound, the “the number of ejaculations, %” value (male Wistar rats; [1]) was 0%, the “the number of mounts, abs.” value (male Wistar rats; [1]) was 3.67 ± 1.34 abs and the “LFM, sec” value (male Wistar rats; [2]) was 251.33 ± 103.86♦ sec. The “the number of mounts, abs.” value (male Wistar rats; [2]) was 6.56 ± 1.68 abs, the “increase of free testosterone in the blood serum in comparison with intact animals” value (male C57BL/6 mice; 10 mg/kg, Day 80) was 16% and the “increase of free testosterone in the blood serum in comparison with the pathological control” value (male C57BL/6 mice; 10 mg/kg, Day 80) was 2 times. The “Free testosterone in the blood serum (pg/ml)” value (male C57BL/6 mice; Day 80, Treamid 10 mg/kg intragastrically Day 49-80) was 3.46 ± 1.87*• pg/ml, the “fertility index relative to untreated metabolic disorders (pathological control)” value (male C57BL/6 mice; Treamid 10 mg/kg Day 49-80) was 1.8 times and the “Fertility index, %” value (male C57BL/6 mice; mating Day 70-80, Treamid 10 mg/kg Day 49-80) was 55*• %. The “content of connective tissue in the liver compared to the pathological control” value (male CBA/CaLac mice) was “markedly reduced” and the “histological pattern of the liver” value (male CBA/CaLac mice) was “did not differ from that of the intact control”.
